“Also recorded” adds a separate entry of the source. Like-named read-outs stand apart in the source and are kept apart here. Where no end group is shown, it is not given here.
Assays:
[1] = tested on: HLA-A2+ human ovarian cancer stem cells 1031CSC
Experimental: (§1) Human monocyte-derived DCs were generated using previously described methods. […] The DCs were washed and plated in 6-well plates at a concentration of 5 ×10^6 cells/well IFN-γ (1000 unit/ml), and then monophosphoryl lipid A (MPLA, 20-50μg/ml) (Cat# L6895, Sigma, St. Louis) was added into the wells to mature the DC for 24hr or 48 hrs.
(§2) In order to evaluate antigen-specific immune responses, CD8^+ T cells were isolated from fresh or frozen apheresis by positive selection using Dynabeads® CD8 Positive Isolation Kit (Life Technologies, Grand Island, N.Y.) and co-cultured with autologous mDC for four weeks. DCs were added weekly. Briefly, mDCs were pulsed with synthetic peptides (10 μg/μl) for 6-8 hours at 37° C., and then treated with 20 ug/ml Mitomycin C (Sigma-Aldrich, St. Louis, Mo.) for 25 min at 37° C. and 5% CO2. The mDCs (5×10^4 cells/well) were co-cultured with autologous CD8^+ T cells (5×10^5 cells/well) in a 96-well plate at 37° C., 5% CO2 in a final volume of 200 μl CTL medium (IMDM with 0.24 mM Asparagine, 0.55 mM L-Arginine, 1.5 mM L-Glutamine and 10% heat inactivated human AB serum). Half of the medium was replaced every other day by fresh culture medium containing 40 IU/ml IL-2 and 20 ng/ml IL-7, the 3rd and 4th week 40 U/ml of IL-2 was replaced with 25 ng/ml IL-15. In the culture medium, peptides could also be added to the culture well at a final concentration of 1-2 μg/ml.
(§3) DDAO-SE labeled target cells were mixed with effector cells at a 1:10 ratio in round-bottom 96 well plate and incubated overnight at 37° C., 5% CO2. The cells were washed, fixed, and permeabilized with Fix/Perm solution (BD Biosciences) and then stained for 30 minutes at 4° C. with 10 μl PE-labeled anti-cleaved caspase-3 monoclonal antibody, followed by Cyan flow cytometric analysis (Beckman Coulter, Inc).

[2] = tested on: HLA-A2+ human ovarian cancer stem cells 882CSC
Experimental: as §1, §2, §3

[3] = Immunogenicity in vitro of A2 peptide epitopes (Table 1); conditions: A2 peptide epitope(s) of Exemplary Vaccine 1; no method given
[4] = target: HLA-A*0201 molecules (Homo sapiens, UniProt P04439, D140Y/D185E/D98H/E176V/E277Q/G131W/G231S/I119V/I121R/I166T/I218V/L300P/L318F/N151K/N90K/P208A/P217A/Q86G/Q94H/R138H/R169H/T345S); test: T2 cell binding assay of HLA-A2 peptides (upregulation of HLA-A2 on T2 cells, MFI by flow cytometry); conditions: for binding affinity to HLA-A*0201 molecules / T2 cells (in words): peptide 75 μg/ml, overnight
[5] = tested on: HLA-A2+ human ovarian cancer stem cells 882CSC; test: Killing assay (DDAO-SE / cleaved caspase-3) with peptide-specific CTLs against 882CSC; conditions: CTLs induced by peptide-pulsed HLA-A2+ DC; target:effector 1:10, overnight
Experimental: as §1, §2, §3

[6] = tested on: HLA-A2+ human ovarian cancer stem cells 1031CSC; test: Killing assay (DDAO-SE / cleaved caspase-3) with peptide-specific CTLs against 1031CSC; conditions: CTLs induced by peptide-pulsed HLA-A2+ DC; target:effector 1:10, overnight
Experimental: as §1, §2, §3

Compound: CSCC[C@H](NC(=O)[C@@H](N)C(C)C)C(=O)N[C@@H](C)C(=O)NCC(=O)N[C@H](C(=O)NCC(=O)N[C@@H](CO)C(=O)N1CCC[C@H]1C(=O)N[C@@H](Cc1ccc(O)cc1)C(=O)N[C@H](C(=O)O)C(C)C)C(C)C [HER2 p773]
- cytotoxicity of peptide-specific CTLs against 1031CSC [1]: can efficiently recognize and lyse
- cytotoxicity of peptide-specific CTLs against 882CSC [2]: can efficiently recognize and lyse

Compound: EIWTHSYKV (listed as Homo sapiens) [FOLR1 p191]
- Immunogenicity in vitro [3]: Yes
- MFI index (relative binding affinity fluorescence index, FI) ([4]; T2 cells incubated overnight with peptide 75 μg/ml and β2-microglobulin, FI = MFI(peptide)−MFI(untreated cells)/MFI(untreated cells)): less than 1
- binding affinity to HLA-A*0201 molecules / T2 cells (in words) [4]: lower affinity binding
- binding affinity to HLA-A*0201 molecules / T2 cells (in words) ([4]; listed as FOLR1p191): low affinity; also recorded: lower binding capacity

Compound: KVLEYVIKV (listed as Homo sapiens) [MAGE-A1 p278]
- Immunogenicity in vitro [3]: Yes
- binding affinity to HLA-A*0201 molecules / T2 cells (in words) [4]: high affinity binding

Compound: SLLFLLFSL (listed as Homo sapiens)
- Immunogenicity in vitro [3]: Yes

Compound: SLLMWITQC [NY-ESO-1 p157]
- Immunogenicity in vitro [3]: Yes

Compound: TLADFDPRV [EphA2 p883]
- cytotoxicity of peptide-specific CTLs against 882CSC [5]: can efficiently recognize and lyse
- cytotoxicity of peptide-specific CTLs against 1031CSC [6]: can efficiently recognize and lyse

Compound: VLPLTVAEV (listed as Homo sapiens) [mesothelin p531]
- Immunogenicity in vitro [3]: Yes
- binding affinity to HLA-A*0201 molecules / T2 cells (in words) [4]: high affinities
- binding affinity to HLA-A*0201 molecules / T2 cells (in words) ([4]; listed as mesothelinp531): high affinity binding

Compound: WLPFGFILI [IL-13Rα2 p345]
- cytotoxicity of peptide-specific CTLs against 882CSC [5]: can efficiently recognize and lyse
- cytotoxicity of peptide-specific CTLs against 1031CSC [6]: can efficiently recognize and lyse
